This note sets out measurements from PMC2730741 (Bioorganic & medicinal chemistry, 2009).

In series [1] the test system is LF cleavage of MEK1 in HeLa cells. It is filed as cell-based, Human.
The conditions of series [2]: microsomes.
The next series can be described thus: in vitro. To be noted: microsomes.
The next series deals with lethal factor (LF) (Bacillus anthracis, UniProt P15917). Kind of series: biochemical. It is filed as biochemical.
The subject of series [3] is Bacillus anthracis Sterne spores. Details: species or system A/J mice. To be noted: mouse, in vivo.
In series [4] the test system is RAW 264.7 macrophages, LF/PA induced cell death. Kind of series: cells. It is filed as cell-based, Murine. As to conditions: Mus musculus, RAW264.7, 4 h, read-out: EC50 (macrophage assay).

Entries after “also recorded” stand apart in the source; their conditions may differ.

Sequence of lethal factor (LF) (P15917 34-809 limits assumed): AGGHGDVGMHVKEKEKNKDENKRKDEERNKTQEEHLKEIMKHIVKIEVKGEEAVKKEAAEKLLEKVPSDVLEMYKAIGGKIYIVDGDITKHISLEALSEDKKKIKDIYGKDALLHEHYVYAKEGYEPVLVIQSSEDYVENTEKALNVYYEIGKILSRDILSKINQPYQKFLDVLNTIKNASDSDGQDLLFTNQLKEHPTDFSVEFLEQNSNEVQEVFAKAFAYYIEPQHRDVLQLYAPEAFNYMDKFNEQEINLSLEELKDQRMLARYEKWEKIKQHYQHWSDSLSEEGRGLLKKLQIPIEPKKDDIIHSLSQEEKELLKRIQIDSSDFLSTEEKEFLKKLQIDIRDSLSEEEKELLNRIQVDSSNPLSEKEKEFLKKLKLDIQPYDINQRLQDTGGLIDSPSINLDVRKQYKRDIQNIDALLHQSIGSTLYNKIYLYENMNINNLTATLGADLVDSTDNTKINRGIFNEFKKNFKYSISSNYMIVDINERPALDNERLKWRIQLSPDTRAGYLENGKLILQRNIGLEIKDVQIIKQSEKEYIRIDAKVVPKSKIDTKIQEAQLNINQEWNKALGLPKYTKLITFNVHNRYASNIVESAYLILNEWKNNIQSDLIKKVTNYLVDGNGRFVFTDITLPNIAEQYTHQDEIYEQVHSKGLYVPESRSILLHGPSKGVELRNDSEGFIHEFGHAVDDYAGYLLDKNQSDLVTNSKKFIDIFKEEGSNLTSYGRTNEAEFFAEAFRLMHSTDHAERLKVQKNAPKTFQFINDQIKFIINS

With `Cc1cc(S(=O)(=O)N[C@H](C(=O)NO)C2CCOCC2)ccc1F` [Compound 7], the “protection of HeLa cells against LF cleavage of MEK1” value (shortened to “protection of HeLa cells”) in series [1] is reported as “effective”.
Consider `Cc1csc(NS(=O)(=O)c2ccc([N+](=O)[O-])cc2)c1-c1nc2ccccc2s1` [Compound 17, N-(3-(benzo[d]thiazol-2-yl)-4-methylthiophen-2-yl)-4-nitrobenzenesulfonamide], for which the Pampa entry is recorded as “High”. Moreover, in series [2], the “Metabolic stability Hept. CLint” value was “t1/2= >120min CLint= 0.6”. The half-life – broadly, the time needed for the level to fall by half in the phase considered – in the series “in vitro” was above 2 h.
In the case of `Nc1sccc1-c1nc2ccccc2s1` [Compound 42, reference compound], at lethal factor (LF), the “inhibitory activity against LF (in words)” value is “essentially inactive”.
With `Cc1ccc(S(=O)(=O)Nc2sccc2-c2nc3ccccc3s2)cc1Cl` [Compound 55, N-(3-(benzo[d]thiazol-2-yl)thiophen-2-yl)-3-chloro-4-methylbenzenesulfonamide], the Pampa entry is recorded as “High”. Moreover, the “survival of infected mice versus DMSO control” value in series [3] was “slight improvement in comparison to the control”. For the same compound, the half-life in the series “in vitro” was above 2 h.
`O=S(=O)(Nc1sccc1-c1nc2ccccc2s1)c1cc(OCC(F)(F)F)ccc1OCC(F)(F)F` [Compound 56, N-(3-(benzo[d]thiazol-2-yl)thiopen-2-yl)-2,5-bis(2,2,2-trifluoroethoxy)benzenesulfonamide]: the IC50 (in general, the concentration that gives 50% inhibition) against lethal factor (LF) came to 39 µM.
Consider `COc1ccc(-c2ccc(S(=O)(=O)Nc3sccc3-c3nc4ccccc4s3)cc2)cc1` [Compound 70], for which the Pampa result is recorded as “Low”. The EC50 – broadly, the midpoint of the concentration-response curve – in series [4] was 0.561 µM. For the same compound, the “protection of HeLa cells” value in series [1] is “effective”. The “survival of infected mice versus DMSO control” value in series [3] is “a little more effective in protecting the mice; also recorded: best survival”. Moreover, the “Metabolic stability Hept. CLint” value in series [2] is given as “t1/2= >120min CLint= 3.6”. In the series “in vitro”, the half-life was above 2 h.
For `O=S(=O)(Nc1sccc1-c1nc2ccccc2s1)c1ccc(-c2ccc(Cl)cc2)cc1` [Compound 71], the Pampa entry is given as “Low”. In “in vitro”, this compound gave a half-life above 2 h.
On to `O=S(=O)(Nc1sccc1-c1nc2ccccc2s1)c1ccc2ncsc2c1` [Compound 92, N-(3-(benzo[d]thiazol-2-yl)thiophen-2-yl)benzo[d]thiazole-6-sulfonamide], for which the Pampa entry is recorded as “High”. Also, the “Metabolic stability Hept. CLint” value in series [2] was “t1/2= >120min CLint= 3.9”. Moreover, in “in vitro”, the half-life was above 2 h.
`CSc1nccc(-c2ccc(S(=O)(=O)Nc3sccc3-c3nc4ccccc4s3)s2)n1` [Compound 99, N-(3-(benzo[d]thiazol-2-yl)thiophen-2-yl)-5-(2-(methylthio)pyrimidin-4-yl)thiophene-2-sulfonamide]: half-maximal inhibition against lethal factor (LF) (IC50) required 18 µM.
Consider `COc1ccc(-c2ccc(S(=O)(=O)Nc3sc4c(c3-c3nc5ccccc5s3)CCCC4)cc2)cc1` [Compound 105], for which, on lethal factor (LF), the IC50 is above 50 µM.
`O=S(=O)(Nc1sc2c(c1-c1nc3ccccc3s1)CCCC2)c1ccc(-c2ccc(Cl)cc2)cc1` [Compound 106]: at lethal factor (LF), the 50% inhibitory concentration (IC50) is above 50 µM.
With `CNC(=O)[C@H](Cc1c[nH]c2ccccc12)NC(=O)[C@@H](CC(=O)NO)CC(C)C` [Inhibitor 1, Ilomastat], the “protection of HeLa cells” value in series [1] is “effective”.
